Converted amounts (≈) assume the structure as drawn. Where two headings read alike, the source gives them in different places.
Assays:
[1] = Solubility in various solvents, shaker method; format: physicochemical; details: for solubility at 72 h: thermodynamic from solid, read-out: Mean Solubility ± SD
Experimental: Assessment of the solubility of compound 5 in various solvents is important in developing suitable formulations for preclinical and clinical studies. The solubility of compound 5 in water, ethanol, poly ethylene glycol 400, propylene glycol monocapryrate type I (PGMC), propylene glycol monocapryrate type II (CAPYROL 90), dimethyl sulfoxide (DMSO), dimethyl acetamide (DMA), TWEEN 80, TWEEN 20, paraffin oil, soybean oil, and olive oil were determined by the shaker method. Briefly, excess amount of compound 5 was added to each of the selected solvents in a scintillation vial and placed on a reciprocating shaker to shake at room temperature for 72 h. The samples were centrifuged at 14,000 rpm for 10 min and subsequently filtered through a 0.22 μm filtration unit; the resulting filtrate was analyzed by HPLC-UV to determine the amount of compound 5 dissolved in the solvents. The experiment was conducted in triplicate.

[2] = test system: E. faecalis OG1RF; assay: Bacterial viability (CFU) in infected nematodes after treatment; format: in vivo, Enterococcus faecalis; details: 4×10^−11 μg/mL, after three days of treatment
Experimental: Young Adult nematodes sequentially preinfected with E. faecalis for 5 h. The nematodes were washed three times with sterile […] and collected by centrifugation between each wash and then transferred into tubes. […] The nematodes were washed twice in 25 mM Tetramisole and transferred to 6 well plates containing 20% BHI and the inhibitors to recover for 48 h and 72 h. After recovery time elapsed, nematodes were then transferred into an eppendorf tube containing 200 μl of M9 and ground using motorized pestle for 1 min and tube was briefly vortexed.

[3] = Stability in plasma and urine samples for LC-MS/MS analysis; format: in vitro ADME, rat
Experimental: The short-term (bench-top) stability of compound 5 in plasma and urine samples was evaluated by analyzing three sets each of freshly prepared plasma and urine samples containing compound 5 and placed them on the bench-top for 2, 4, and 6 h, respectively or at −80° C. for 14 days. All the samples were compared with freshly prepared samples of the same concentration.
The stability of compound 5 in processed samples (on-instrument or auto-sampler stability) was also evaluated by comparing freshly prepared plasma and urine QC samples to similar samples placed on the auto-sampler for 2, 4, and 6 h respectively. One set of the plasma and urine QC samples was extracted with acetonitrile containing IS, and the other set with pure acetonitrile without IS.

[4] = test system: plasma protein; assay: Plasma protein binding in rat plasma

## Oc1c(Br)cc(Cl)c2cccnc12 [Compound 5, 7-bromo-5-chloroquinolin-8-ol]
[1]; Dimethyl acetamide
  Mean Solubility ± SD: >80 mg/mL
[1]; dimethyl acetamide, organic solvent or mixture
  solubility at 72 h: > 80 mg/mL
[1]; water
  solubility at 72 h: 0.07 mg/mL (≈ 271 µM)
[2]
  drop in CFU: 50 fold
[3]; Plasma, 2 hr
  Processed sample or Auto-sampler stability No IS: 97.8 ± 1.11
  Processed sample or Auto-sampler stability With IS: 95.9 ± 1.87
[3]; Plasma, 2 hr bench-top
  Short-term Stability: 91.6 ± 4.06
[3]; Plasma, 4 hr
  Processed sample or Auto-sampler stability No IS: 97.1 ± 5.42
  Processed sample or Auto-sampler stability With IS: 94.7 ± 4.20
[3]; Plasma, 4 hr bench-top
  Short-term Stability: 95.1 ± 3.24
[3]; Plasma, 6 hr
  Processed sample or Auto-sampler stability No IS: 95.5 ± 6.69
  Processed sample or Auto-sampler stability With IS: 97.3 ± 5.55
[3]; Plasma, 6 hr bench-top
  Short-term Stability: 93.7 ± 1.17
[3]; Plasma, 14 days at −80° C.
  Short-term Stability: 91.3 ± 5.45
[3]; Urine, 2 hr
  Processed sample or Auto-sampler stability No IS: 92.3 ± 1.32
  Processed sample or Auto-sampler stability With IS: 102.1 ± 1.35
[3]; Urine, 2 hr bench-top
  Short-term Stability: 94.4 ± 1.83
[3]; Urine, 4 hr
  Processed sample or Auto-sampler stability No IS: 92.8 ± 2.31
  Processed sample or Auto-sampler stability With IS: 99.5 ± 1.89
[3]; Urine, 4 hr bench-top
  Short-term Stability: 93.2 ± 4.10
[3]; Urine, 6 hr
  Processed sample or Auto-sampler stability No IS: 94.2 ± 1.59
  Processed sample or Auto-sampler stability With IS: 103.2 ± 2.33
[3]; Urine, 6 hr bench-top
  Short-term Stability: 95.6 ± 1.44
[3]; Urine, 14 days at −80° C.
  Short-term Stability: 101.6 ± 4.29
[4]; Concentration 5 μg/mL
  Bound fraction (%) ± SD: 91.0 ± 0.6%
[4]; Concentration 25 μg/mL
  Bound fraction (%) ± SD: 96.3 ± 1.4%
[4]; Concentration 50 μg/mL
  Bound fraction (%) ± SD: 98.3 ± 0.3%
